{"source": "patent US20070026090A1", "about": "“Treatment and prevention of inflammatory disease and mitochondrial dysfunction with high dose selenium” (priority 2003, published 2007)", "key": {"J774.2 macrophages": {"tested_on": "J774.2 macrophages", "test": "Cell viability (PI exclusion, flow cytometry)", "assay_type": "cell-based, murine", "details": "10 μM, activated cells", "description": "(§1) Experiments were performed on cells at 60% confluence.\n(§2) Determination of cell viability: Cell-membrane integrity was detected by flow cytometer (FACSort, Becton Dickenson and Co., San Jose, Calif. USA) as a measurement of cell viability. For this assay, the nonpermeant DNA-intercalating dye propidium iodide (PI), which is excluded by viable cells, was used. Fluorescence settings were excitation at 488 nm and emission at 575 nm. Data were collected from at least 10,000 cells."}, "[1]": {"test": "Cell viability (PI exclusion, flow cytometry)", "assay_type": "cell-based, murine", "details": "mouse, J774.2 macrophages, 10 μM, 24 hour exposure", "description": "as §1, §2"}, "MnSOD": {"tested_on": "MnSOD", "test": "MnSOD transcription and expression (RTPCR, Western blot)", "assay_type": "cell-based, murine", "description": "Cell culture: Murine J774.2 macrophages (kindly provided by Prof. Dov Zipori from the Weizmann Institute of Science) were grown in RPMI medium supplemented with 10% (w/v) fetal calf serum, penicillin (100 U/ml), streptomycin (100 μg/ml) and 1× glutamine at 37° C. in a humidified atmosphere consisting of 95% air and 5% CO2. Experiments were performed on cells at 60% confluence.\nWestern blots (Sp1, MnSOD, UCP2): Cells were grown in six-well tissue culture plates, treated with selenium for 72 h and activated with LPS and IFN-γ for 24 h. The wells were washed with PBS, scraped and centrifuged\n(5 min. 2000 RPM), and lysed by addition of boiling hot lysis buffer (1% SDS, 1 mM sodium ortho-vanadate, 10 mM Tris pH 7.4) to the pellets. Protein content was measured (BIO RAD protein assay kit) and equalized. Sample buffer (containg SDS) was added and the samples were boiled. The samples were subjected to SDS-PAGE followed by western blot analysis. Separated proteins were transferred electrophoretically from the gel to a nitrocellulose membrane (Amersham International plc, Buckinghamshire, ENGLAND). The membrane was blocked in TBS (0.15 M NaCl/10 mM Tris/HCl, pH7.4) containing 5% (v/v) skimmed milk (Blotto), then incubated over night with primary antibodies at RT (diluted 1/2000 in blotto). After being washed six times in TBST [TBS containing 0.05% (v/v) Tween 20], the membrane was incubated for 2 h at room temperature with secondary antibody (diluted 1/5000 in blotto). Immunoreactive bands were detected with ECL western blotting detection reagents (Amersham Pharmacia Biotech, Buckingammshire England) and developed on film (Fuji super RX, Dusseldorf, Germany). […]\nRight (antisense) 5′[…]-3′ (SEQ ID NO: 6) corresponding to nucleotides 622 to 640 of mouse mRNA region (GenBank Accession No. NM 013671). […] Actual PCR product was approximately 570 bp, measured on 1.25% agarose gel in TAE containing ethidium bromide.\n(§3) PCR was performed with 28 cycles (25 cycles for GAPDH) of 30 seconds at 96° C., 30 seconds at 58° C. and 1 min at 72° C. RTPCR products were analyzed on 1.3% (w/v) agarose gels."}, "GAPDH": {"tested_on": "GAPDH", "test": "GAPDH housekeeping control transcript (RTPCR)", "assay_type": "cell-based, murine", "description": "Reverse transcriptase-PCR (RTPCR): Total RNA was prepared and isolated by the Tri-Reagent method according to the manufacturer's protocol (Sigma, St. Louis Mo., USA). Total RNA (1 μg) was converted into cDNA using Reverse-iT first strand synthesis kit (Abgene, UK). Amplification of MnSOD and UCP2 sequences was performed by incubating 10 ng equivalents of DNA with the following oligonucleotide primers:\nThe sequence of glyceraldehyde-3-phosphate dehydrogenase (GAPDH) was amplified as a control using the following primers: Left (sense) 5′-[…]-3′(SEQ ID NO: 9) corresponding to nucleotides 364 to 382 of mouse mRNA (GenBank Accession No. XM 195823.21).\nRight (antisense) 5′[…]-3′ (SEQ ID NO: 10) corresponding to nucleotides 683 to 703 of mouse mRNA (GenBank Accession No. XM 195823.21). The expected PCR product was 339 bp. Actual PCR product was approximately 340 bp, measured on 1.25% agarose gel in TAE containing ethidium bromide.\nas §3"}, "Sp1": {"tested_on": "Sp1", "test": "Sp1 binding in vitro, selenite added to nuclear extract (EMSA)", "design": "species or system murine", "details": "5 μM added to nuclear extract 5 minutes before (FIG. 13C)", "description": "Nuclear extracts: Nuclear Extracts were prepared using a slight modification of the method of Dignam et al (23). Treated cells were washed with cold PBS, scraped and centrifuged. Hypotonic buffer (1 ml, 20 mM HEPES pH 7.0, 10 mM KCl, 1 mM mGCl2, 0.5 mM DTT, 0.1% Triton X-100, 20% glycerol, 2 mM PMSP, 1 mg/ml Aprotonin and Leupeptin) was added to the cell pellets, the pellets were disrupted by pipetting, and centrifuged 3000 RPM for 5 min. The pellets were re-suspended in 100 μl cold extraction buffer (20 mM HEPES pH 7.0, 10 mM KCl, 1 mM mGCl2, 0.5 mM DTT, 0.1% Triton X-100, 20% glycerol, 2 mM PMSF, 1 mg/ml Aprotonin and Leupeptin, 420 mM NaCl). The samples were rotated for 20 min at 4° C., centrifuged 15,000 RPM for 10 min, and supernatants collected. Protein content was measured using Bradford reagent. Samples were stored frozen at minus 70° C.\nElectromobility shift assay (EMSA)—Gel shift assays were performed according to the gel shift assay protocol from Promega Corp. (San Luis Obispo, Calif.). A 22-mer double-stranded NF-κB consensus oligonucleotide 5′-[…]-3′ (SEQ ID NO:3), and Sp1 consensus oligonucleotide 5′-[…]-3(SEQ ID NO:4), were labeled with 32P. […]"}}, "note": "Where two headings read alike, the source gives them in different places."}
{"smiles": "[Se]", "note": "[selenium]", "values": [{"measurement": "cell survival, simultaneous selenium exposure and activation", "setting": "J774.2 macrophages; from 75% without selenium (FIG. 14A)", "result": 35, "unit": "%"}, {"measurement": "cell survival, selenium following activation by 24 hours", "setting": "J774.2 macrophages; from 75% without selenium (FIG. 14B)", "result": 55, "unit": "%"}, {"measurement": "cytotoxicity at 24 h, 10 μM", "setting": "[1]; LPS + INFγ activated (FIG. 14A column c), read-out: decrease in viability, activated cells", "result": "≤ 50", "unit": "%"}, {"measurement": "cytotoxicity at 24 h, 10 μM", "setting": "[1]; not activated, read-out: decrease in viability, control cells", "result": 60, "unit": "%"}, {"measurement": "lowest concentration effective in significantly reducing MnSOD transcripts and protein", "setting": "MnSOD; 24 and 72 hours, resting J774.2 (FIG. 9A, 9B)", "result": 0.5, "unit": "µM"}, {"measurement": "MnSOD expression, activated macrophages", "setting": "MnSOD; exposure (72 hours) prior to activation, concentration dependent (FIG. 11)", "result": "decreased"}, {"measurement": "GADPH expression, activated macrophages", "setting": "GAPDH; LPS + INFγ activated (FIG. 11)", "result": "No effect"}, {"measurement": "GADPH RNA levels", "setting": "GAPDH; resting J774.2 (FIGS. 9, 10)", "result": "No effect"}, {"measurement": "Sp-1 binding in vitro", "setting": "Sp1", "result": "directly inhibited"}]}
